Results from patent US8501446B2 (Vertex Pharmaceuticals Incorporated, priority 2004, dated 2013).

Assays:
JAK3 = molecular target: T1, JAK3 (Homo sapiens, UniProt P52333); assay: JAK3 inhibition assay (standard radioactive enzyme assay); format: biochemical; conditions: average Ki if more than one value determined
T1 sequence (P52333 1-1124): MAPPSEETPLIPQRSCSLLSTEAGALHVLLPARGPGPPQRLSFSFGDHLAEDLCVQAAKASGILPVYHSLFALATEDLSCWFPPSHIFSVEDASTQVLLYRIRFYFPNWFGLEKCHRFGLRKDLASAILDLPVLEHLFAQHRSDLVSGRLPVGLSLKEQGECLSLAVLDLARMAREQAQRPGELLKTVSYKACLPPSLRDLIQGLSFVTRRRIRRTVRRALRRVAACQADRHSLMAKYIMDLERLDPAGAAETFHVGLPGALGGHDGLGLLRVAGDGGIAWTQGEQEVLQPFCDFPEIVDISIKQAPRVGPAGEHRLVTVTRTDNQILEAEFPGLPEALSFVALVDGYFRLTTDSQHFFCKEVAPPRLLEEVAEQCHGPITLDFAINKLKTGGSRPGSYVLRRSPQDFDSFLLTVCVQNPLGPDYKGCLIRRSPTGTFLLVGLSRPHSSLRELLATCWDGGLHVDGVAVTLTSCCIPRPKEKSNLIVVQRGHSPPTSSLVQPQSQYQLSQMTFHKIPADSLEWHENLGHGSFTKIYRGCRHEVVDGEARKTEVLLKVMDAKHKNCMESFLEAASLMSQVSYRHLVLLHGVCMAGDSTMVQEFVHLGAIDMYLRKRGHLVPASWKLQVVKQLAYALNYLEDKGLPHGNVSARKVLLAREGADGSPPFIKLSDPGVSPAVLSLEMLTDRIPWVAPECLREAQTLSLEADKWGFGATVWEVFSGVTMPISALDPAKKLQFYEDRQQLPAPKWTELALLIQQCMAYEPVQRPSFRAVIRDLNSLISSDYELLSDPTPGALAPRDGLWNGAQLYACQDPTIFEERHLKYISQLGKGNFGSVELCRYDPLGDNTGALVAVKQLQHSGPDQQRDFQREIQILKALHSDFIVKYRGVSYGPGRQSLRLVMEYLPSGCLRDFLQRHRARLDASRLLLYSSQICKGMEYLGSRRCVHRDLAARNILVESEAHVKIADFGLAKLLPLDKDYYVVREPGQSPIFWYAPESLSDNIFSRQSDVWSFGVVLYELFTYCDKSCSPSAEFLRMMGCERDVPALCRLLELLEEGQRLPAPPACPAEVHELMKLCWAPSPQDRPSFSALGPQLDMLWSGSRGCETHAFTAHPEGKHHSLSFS

ROCK I (AA 6-553) = molecular target: T2, ROCK I (AA 6-553) (Homo sapiens, UniProt Q13464); assay: ROCK inhibition assay, standard coupled enzyme system ("Enzyme"); format: biochemical; conditions: enzyme-linked assay
T2 construct: ROCK I (AA 6-553)
T2 sequence (Q13464 6-553, species assumed): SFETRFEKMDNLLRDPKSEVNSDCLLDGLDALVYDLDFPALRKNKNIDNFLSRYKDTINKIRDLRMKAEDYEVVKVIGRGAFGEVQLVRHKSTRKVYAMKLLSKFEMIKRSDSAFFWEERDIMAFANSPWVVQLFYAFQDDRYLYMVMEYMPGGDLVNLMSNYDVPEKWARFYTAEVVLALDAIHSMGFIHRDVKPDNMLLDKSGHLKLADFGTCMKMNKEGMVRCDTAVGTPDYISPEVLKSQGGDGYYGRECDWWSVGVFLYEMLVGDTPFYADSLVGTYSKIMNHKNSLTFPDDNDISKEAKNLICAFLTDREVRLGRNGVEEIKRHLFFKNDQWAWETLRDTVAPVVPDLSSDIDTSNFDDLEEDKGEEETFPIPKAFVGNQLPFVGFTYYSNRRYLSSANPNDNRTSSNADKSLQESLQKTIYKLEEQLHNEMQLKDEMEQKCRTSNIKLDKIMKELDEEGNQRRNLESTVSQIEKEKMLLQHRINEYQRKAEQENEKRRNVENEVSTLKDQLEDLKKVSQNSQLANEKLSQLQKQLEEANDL
Outline: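 ROCK I (AA 6-553) at 45 nM and 30 °C with 45 μM ATP and 200 μM peptide, in 100 mM HEPES pH 7.5, 10 mM MgCl2, 25 mM NaCl, 2 mM DTT, 1.5% DMSO. ADP output read by a PK/LDH coupled system: 2.5 mM PEP, 350 μM NADH, 30 μg/ml PK, 10 μg/ml LDH.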

Row | Ki (JAK3) [nM] | Ki (ROCK I (AA 6-553)) [nM] | Structure (SMILES)
1 | < 500 | 500 to 5000 | COc1cnc2[nH]cc(-c3cccc(N4C[C@@H](C)N(C(C)=O)[C@@H](C)C4)n3)c2c1 [Compound 18]
2 | < 500 | < 500 | CC(=O)N1[C@H](C)CN(c2cccc(-c3c[nH]c4ncc(Cl)cc34)n2)C[C@@H]1C [Compound 19]
3 | < 500 | < 500 | CCOC(=O)N1CCCN(c2nccc(-c3c[nH]c4ncc(OC)cc34)n2)CC1 [Compound 33]
4 | < 500 | < 500 | COC(=O)c1cnc2[nH]cc(-c3cccc(N4C[C@@H](C)N(C(C)=O)[C@@H](C)C4)n3)c2c1 [Compound 35]
5 | < 500 | 500 to 5000 | C[C@H](Nc1nc(-c2c[nH]c3ncc(Cl)cc23)ncc1F)C(=O)NCC(F)(F)F [Compound 369]
6 | < 500 | 500 to 5000 | C[C@H](Nc1cccc(-c2c[nH]c3ncc(Cl)cc23)n1)c1ccc(F)cc1 [Compound 395]
